Measured values as given in patent US6727253B2, “Treatment of accidental extravasation of anthracyclines” (Antianthra APS, priority 1999, dated 2004).
Where two headings read alike, the source gives them in different places.

Assays:
[1] = system: wound after daunorubicin SC in swine; experiment: Pilot study on swine, daunorubicin SC; assay type: in vivo; conditions: 1 ml daunorubicin SC, untreated
Procedure: (§1) A danish porker weighting approximately 30 kg was used. The animals were fully anesthesized and artificially ventilated during SC injection of 1 ml of anthracycline.

[2] = system: SC daunorubicin induced wounds in mice; conditions: for AUC / DW / FW / TTW: Table A, pooled data
Procedure: The mice were euthanized after healing of all wounds.
The effect of various doses of ICRF-187 was investigated in Example 3.
Comparison of two concentrations of sc daunorubicin were compared with and without simultaneous treatment with ICRF-187 250 mg/kg.
ICRF-187 was administered at the same time as daunorubicin, 3 hours after, and 6 hours after, respectively. Saline served as control. The dose of daunorubicin was 3 mg/kg so and ICRF-187 was administered IP in a 250 mg/kg solution. Twenty-eight mice were used. The results are depicted in data sheet #6 and the mean AUCs are shown graphically in FIG. 5.
100 mg/kg ICRF-187 was injected into the subcutaneous papule produced by injected daunorubicin. This treatment was compared to intralesional saline control, IP saline control, and IP treatment with ICRF-187.
[…]. Seven experiments (n=6, 7, 7, 9, 9, 9, and 9) with 3 mg/kg daunorubicin SC plus saline IP at t=0 and seven experiments (n=6, 7, 7, 9, 9, 8, and 9) with 3 mg/kg daunorubicin SC plus 250 mg/kg ICRF-187 IP at t=0tin two experiments (n=9 and 4) the ICRF-187 doses were 62,5 mg/kg and 375 mg/kg IP, respectively, in two (n=7 and 9) the dose was 125 mg/kg. ICRF-187 250 mg/kg was administered IV in one (n=9).

[3] = system: wound after doxorubicin SC in swine; experiment: Pilot study on swine, doxorubicin SC; assay type: in vivo; conditions: 3 mg doxorubicin SC, not receiving ICRF-187
Procedure: as §1

[4] = Example 3, daunorubicin 3 mg/kg sc + saline IP
[5] = Example 4, daunorubicin 1 mg/kg sc + saline IP
[6] = Example 4, daunorubicin 3 mg/kg sc + saline IP
[7] = Example 5, daunorubicin 1 mg/kg sc + saline IP
[8] = Example 5, daunorubicin 3 mg/kg sc + saline IP
[9] = Example 6, daunorubicin 3 mg/kg sc + saline IP
[10] = Example 7, daunorubicin 3 mg/kg sc + 0.05 ml saline IL
[11] = Example 7, daunorubicin 3 mg/kg sc + saline IP
[12] = daunorubicin 1 mg/kg SC + saline IP
[13] = daunorubicin 3 mg/kg SC + saline IP
[14] = daunorubicin 3 mg/kg SC + saline IP, listed as daunorubicin

With `COc1cccc2c1C(=O)c1c(O)c3c(c(O)c1C2=O)C[C@@](O)(C(C)=O)C[C@@H]3O[C@H]1C[C@H](N)[C@H](O)[C@H](C)O1` [Daunorubicin] the wound appearance [1] was “a large wound appeared”, the “Mean AUC” value [2, 4] was 764 mm^2 × days and the “Mean DWw ± SEM” value [2, 4] was 29.8 ± 0.5 days. The “Mean TTWw ± SEM” value [2, 4] was 4.8 ± 0.4 days, the “Mean AUC” value [2, 5] was 365 mm^2 × days and the “Mean DWw ± SEM” value [2, 5] was 25.5 ± 1.1 days. For the same compound, the “Mean TTWw ± SEM” value [2, 5] was 7.3 ± 1.6 days, the “Mean AUC” value [2, 6] was 1240 mm^2 × days and the “Mean DWw ± SEM” value [2, 6] was 29.0 ± 0.9 days. For the same compound, the “Mean TTWw ± SEM” value [2, 6] was 4.8 ± 0.3 days, the “Mean AUC” value [2, 7] was 184 mm^2 × days and the “Mean DWw ± SEM” value [2, 7] was 20.5 ± 1.3 days. For the same compound, the “Mean TTWw ± SEM” value [2, 7] was 8.5 ± 0.7 days, the “Mean AUC” value [2, 8] was 955 mm^2 × days and the “Mean DWw ± SEM” value [2, 8] was 25.7 ± 0.7 days. The “Mean TTWw ± SEM” value [2, 8] was 5.1 ± 0.2 days, the “Mean AUC” value [2, 9] was 1398 mm^2 × days and the “Mean DWw ± SEM” value [2, 9] was 27.4 ± 0.5 days. The “Mean TTWw ± SEM” value [2, 9] was 5.0 ± 0.4 days, the “Mean AUC” value [2, 10] was 1290 mm^2 × days and the “Mean DWw ± SEM” value [2, 10] was 24.4 ± 0.6 days. For the same compound, the “Mean TTWw ± SEM” value [2, 10] was 6.2 ± 0.3 days, the “Mean AUC” value [2, 11] was 1144 mm^2 × days and the “Mean DWw ± SEM” value [2, 11] was 26.9 ± 0.7 days. For the same compound, the “Mean TTWw ± SEM” value [2, 11] was 6.0 ± 0.3 days, the AUC [2, 12] was 263 (± 56) mm^2×days and the DW [2, 12] was 22.6 (± 1.1) days. For the same compound, the FW [2, 12] was 88%, the TTW [2, 12] was 6.9 (± 0.7) days and the AUC [2, 13] was 1260 (± 72) mm^2×days. For the same compound, the DW [2, 13] was 26.6 (± 0.3) days, the FW [2, 13] was 96% and the TTW [2, 13] was 5.5 (± 0.2) days. For the same compound, the DW [2, 14] was 26.6 days and the TTW [2, 14] was 5.5 days.
In the case of `COc1cccc2c1C(=O)c1c(O)c3c(c(O)c1C2=O)C[C@@](O)(C(=O)CO)C[C@@H]3O[C@H]1C[C@H](N)[C@H](O)[C@H](C)O1` [Doxorubicin], the wound appearance [3] is reported as “a wound appeared”.
